pIC50: −log10 of the molar value.
Target: Acetylcholinesterase (Homo sapiens, UniProt P22303)
Assay: Inhibition of acetylcholinesterase (unknown origin)

Chain of Acetylcholinesterase (P22303 whole entry): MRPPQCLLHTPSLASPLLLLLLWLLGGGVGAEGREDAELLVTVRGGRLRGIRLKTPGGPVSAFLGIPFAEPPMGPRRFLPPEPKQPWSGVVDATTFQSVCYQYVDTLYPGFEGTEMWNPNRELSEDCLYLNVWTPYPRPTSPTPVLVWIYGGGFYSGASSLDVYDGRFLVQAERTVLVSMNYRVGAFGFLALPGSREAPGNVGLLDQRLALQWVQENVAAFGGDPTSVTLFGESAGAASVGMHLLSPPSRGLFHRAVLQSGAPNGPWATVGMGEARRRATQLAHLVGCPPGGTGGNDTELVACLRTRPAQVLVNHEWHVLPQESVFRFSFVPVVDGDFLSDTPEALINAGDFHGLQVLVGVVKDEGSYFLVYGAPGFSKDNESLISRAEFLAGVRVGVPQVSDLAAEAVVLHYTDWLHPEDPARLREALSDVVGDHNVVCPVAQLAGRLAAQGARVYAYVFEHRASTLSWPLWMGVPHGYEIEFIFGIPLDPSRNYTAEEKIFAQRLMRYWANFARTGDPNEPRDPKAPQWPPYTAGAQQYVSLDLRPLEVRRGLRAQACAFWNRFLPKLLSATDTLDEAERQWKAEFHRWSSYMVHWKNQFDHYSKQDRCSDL

Row | Compound | pIC50
1 | CNCOc1cccc(CN(C)CCCCCCCOc2ccc3c(=O)c4ccccc4oc3c2)c1 | 9.49
2 | CCN(CCCCCOc1ccc2c(=O)c3ccccc3oc2c1)Cc1cccc(OC(=O)NC)c1 | 9.09
3 | CN(CCCCCOc1ccc2c(=O)c3ccccc3oc2c1)Cc1ccccc1 | 5.20
